Measurements taken from ChEMBL document CHEMBL1156615, “Nakijiquinones G-I, new sesquiterpenoid quinones from marine sponge” (Bioorg Med Chem, 2008).
In brackets after ≈: the same amount, converted by molar mass. Activity calls are given as the source filed them. The rule behind the calls is not given here.

Columns and labels:
KB = test: Cytotoxicity against human KB cells; type: functional, cell-based
Cryptococcus neoformans = test: Antifungal activity against Cryptococcus neoformans; type: functional
P388 = test: Cytotoxicity against mouse P388 cells; type: functional, cell-based
Micrococcus luteus = test: Antibacterial activity against Micrococcus luteus; type: functional
L1210 = test: Cytotoxicity against mouse L1210 cells; type: functional, cell-based
Bacillus subtilis = test: Antibacterial activity against Bacillus subtilis; type: functional
[1] = target: Receptor tyrosine-protein kinase erbB-2 (Homo sapiens) (UniProt P04626); test: Inhibition of HER2
Staphylococcus aureus = test: Antibacterial activity against Staphylococcus aureus; type: functional
Aspergillus niger = test: Antifungal activity against Aspergillus niger; type: functional
Candida albicans = test: Antifungal activity against Candida albicans; type: functional
Escherichia coli = test: Antibacterial activity against Escherichia coli; type: functional

Receptor tyrosine-protein kinase erbB-2 (Homo sapiens), sequence (P04626 whole entry): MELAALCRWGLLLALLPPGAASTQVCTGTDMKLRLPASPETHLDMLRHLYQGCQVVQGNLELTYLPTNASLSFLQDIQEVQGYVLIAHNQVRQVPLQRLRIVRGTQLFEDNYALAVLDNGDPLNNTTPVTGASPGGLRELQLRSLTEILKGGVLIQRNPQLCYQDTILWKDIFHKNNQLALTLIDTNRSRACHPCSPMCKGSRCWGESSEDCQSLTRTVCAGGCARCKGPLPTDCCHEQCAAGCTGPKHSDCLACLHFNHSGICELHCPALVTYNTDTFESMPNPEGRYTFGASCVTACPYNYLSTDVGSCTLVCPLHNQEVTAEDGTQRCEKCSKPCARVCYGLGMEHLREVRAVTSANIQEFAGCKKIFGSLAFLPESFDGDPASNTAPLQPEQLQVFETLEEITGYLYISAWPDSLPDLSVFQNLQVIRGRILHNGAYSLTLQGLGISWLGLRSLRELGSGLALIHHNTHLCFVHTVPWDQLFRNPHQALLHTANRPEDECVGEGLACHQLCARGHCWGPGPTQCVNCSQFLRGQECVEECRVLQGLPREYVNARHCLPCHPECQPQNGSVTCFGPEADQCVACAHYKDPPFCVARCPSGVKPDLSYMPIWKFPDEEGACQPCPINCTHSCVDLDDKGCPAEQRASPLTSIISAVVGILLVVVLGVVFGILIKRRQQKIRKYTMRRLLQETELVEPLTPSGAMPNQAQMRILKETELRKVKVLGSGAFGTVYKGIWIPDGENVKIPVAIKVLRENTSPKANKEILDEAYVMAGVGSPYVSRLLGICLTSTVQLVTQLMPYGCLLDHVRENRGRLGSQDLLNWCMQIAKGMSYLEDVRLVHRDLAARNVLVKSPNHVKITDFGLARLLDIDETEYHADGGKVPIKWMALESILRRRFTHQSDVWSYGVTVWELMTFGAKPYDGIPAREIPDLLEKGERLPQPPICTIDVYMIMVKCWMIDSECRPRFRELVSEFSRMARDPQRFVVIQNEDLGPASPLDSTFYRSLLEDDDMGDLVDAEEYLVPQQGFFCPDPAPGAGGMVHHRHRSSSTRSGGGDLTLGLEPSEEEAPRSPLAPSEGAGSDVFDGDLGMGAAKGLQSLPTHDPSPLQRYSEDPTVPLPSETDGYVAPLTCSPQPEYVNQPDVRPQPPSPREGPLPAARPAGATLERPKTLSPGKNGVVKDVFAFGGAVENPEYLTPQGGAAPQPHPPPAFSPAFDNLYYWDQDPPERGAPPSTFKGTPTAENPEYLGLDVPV

Row | MIC (Cryptococcus neoformans) | MIC (Micrococcus luteus) | MIC (Bacillus subtilis) | Activity [1] | MIC (Staphylococcus aureus) | MIC (Aspergillus niger) | MIC (Candida albicans) | MIC (Escherichia coli) | Structure (SMILES) | IC50 (KB) | IC50 (P388) | IC50 (L1210)
1 | > 33.3 µg/mL | 33.3 µg/mL (≈ 74.4 µM) | > 33.3 µg/mL | Active | > 33.3 µg/mL | > 33.3 µg/mL | > 33.3 µg/mL | > 33.3 µg/mL | CC1=CCC[C@H]2[C@](C)(CC3=C(O)C(=O)C=C(NCCC[S+](C)[O-])C3=O)[C@@H](C)CC[C@]12C (stereo partly drawn) [NAKIJIQUINONE I] | 5.6 µg/mL (≈ 12.5 µM) | 2.9 µg/mL (≈ 6.48 µM) | 2.4 µg/mL (≈ 5.36 µM)
2 | > 33.3 µg/mL | 33.3 µg/mL (≈ 76.1 µM) | 33.3 µg/mL (≈ 76.1 µM) | Active | 33.3 µg/mL (≈ 76.1 µM) | > 33.3 µg/mL | > 33.3 µg/mL | > 33.3 µg/mL | CC1=CCC[C@H]2[C@](C)(CC3=C(O)C(=O)C=C(NCCc4cnc[nH]4)C3=O)[C@@H](C)CC[C@]12C [NAKIJIQUINONES G] | 4.8 µg/mL (≈ 11 µM) | 3.2 µg/mL (≈ 7.31 µM) | 2.9 µg/mL (≈ 6.63 µM)
3 | 8.35 µg/mL (≈ 18.3 µM) | 16.7 µg/mL (≈ 36.6 µM) | 33.3 µg/mL (≈ 72.9 µM) | Active | 33.3 µg/mL (≈ 72.9 µM) | 16.7 µg/mL (≈ 36.6 µM) | 8.35 µg/mL (≈ 18.3 µM) | > 33.3 µg/mL | CC1=CCC[C@H]2[C@](C)(CC3=C(O)C(=O)C=C(NCCCCNC(=N)N)C3=O)[C@@H](C)CC[C@]12C [NAKIJIQUINONES H] | > 10 µg/mL | 2.4 µg/mL (≈ 5.26 µM) | 8.5 µg/mL (≈ 18.6 µM)
